# Assay results reported in ChEMBL document CHEMBL3228017, “Apparent bioisosteric replacement of--S--by NCN: synthesis of N--cyano-2-aza-A-nor-5alpha-androstan-17beta-ol acetate, an aza steroid androgen” (1979).
# Active and inactive are the calls of the source. The calls are words filed in the database; no cut-off is given here.
# Assays:
# [1] = species: Rattus norvegicus; assay: Antimyotrophic activity in rat assessed as reduction in levator ani weight at 3 mg; type: functional, organism-based
# [2] = species: Rattus norvegicus; assay: Antiandrogenic activity in rat assessed as reduction in ventral prostate weight at 3 mg; type: functional, organism-based; conditions: Prostate gland
# [3] = species: Rattus norvegicus; assay: Myotrophic activity in rat assessed as increase of levator ani weight at 3 mg in presence of testosterone (reference value: 32.2 +/- 1.82 mg); type: functional
# [4] = species: Rattus norvegicus; assay: Androgenic activity in rat assessed as increase of ventral prostate weight at 3 mg in presence of testosterone (reference value: 18.1 +/- 0.91 mg); type: functional, Prostate gland
# [5] = species: Rattus norvegicus; assay: Antiandrogenic activity in rat assessed as reduction in seminal vesicle weight at 3 mg; type: functional, organism-based
# [6] = species: Rattus norvegicus; assay: Androgenic activity in rat assessed as increase of ventral prostate weight at 3 mg (reference value: 18.1 +/- 0.91 mg); type: functional, Prostate gland
# [7] = species: Rattus norvegicus; assay: Androgenic activity in rat assessed as increase of seminal vesicle weight at 3 mg (reference value: 11.4 +/- 0.38 mg); type: functional
# [8] = species: Rattus norvegicus; assay: Androgenic activity in rat assessed as increase of seminal vesicle weight at 3 mg in presence of testosterone (reference value: 11.4 +/- 0.38 mg); type: functional
# [9] = species: Rattus norvegicus; assay: Myotrophic activity in rat assessed as increase of levator ani weight at 3 mg (reference value: 32.2 +/- 1.82 mg); type: functional
# [10] = species: Rattus norvegicus; assay: Androgenic activity in rat assessed as increase in final body weight at 3 mg in presence of testosterone (reference value: 98 g); type: functional
# [11] = species: Rattus norvegicus; assay: Androgenic activity in rat assessed as increase in final body weight at 3 mg (reference value: 98 g); type: functional
# [12] = species: Rattus norvegicus; assay: Myotrophic activity in rat assessed as increase of levator ani weight at 0.3 mg (reference value: 32.2 +/- 1.82 mg); type: functional
# [13] = species: Rattus norvegicus; assay: Androgenic activity in rat assessed as increase in final body weight at 0.3 mg (reference value: 98 g); type: functional
# [14] = species: Rattus norvegicus; assay: Androgenic activity in rat assessed as increase of seminal vesicle weight at 0.3 mg (reference value: 11.4 +/- 0.38 mg); type: functional
# [15] = species: Rattus norvegicus; assay: Androgenic activity in rat assessed as increase of ventral prostate weight at 0.3 mg (reference value: 18.1 +/- 0.91 mg); type: functional, Prostate gland
# [16] = species: Rattus norvegicus; assay: Androgenic activity in rat assessed as increase of seminal vesicle weight (reference value: 11.4 +/- 0.38 mg); type: functional
# [17] = species: Rattus norvegicus; assay: Myotrophic activity in rat assessed as increase of levator ani weight (reference value: 32.2 +/- 1.82 mg); type: functional
# [18] = species: Rattus norvegicus; assay: Androgenic activity in rat assessed as increase of ventral prostate weight (reference value: 18.1 +/- 0.91 mg); type: functional, Prostate gland
# [19] = species: Rattus norvegicus; assay: Androgenic activity in rat assessed as increase in final body weight (reference value: 98 g); type: functional
smiles,measurement,setting,value
CC(=O)O[C@H]1CC[C@H]2[C@@H]3CC[C@H]4CN(C#N)C[C@]4(C)[C@H]3CC[C@]12C,inhibition,[1],inactive
same,inhibition,[2],inactive
same,Activity,[3],58.7 mg
same,Activity,[4],61.6 mg
same,inhibition,[5],inactive
same,Activity,[6],56.1 mg
same,Activity,[7],33.3 mg
same,Activity,[8],40.6 mg
same,Activity,[9],55.8 mg
same,Activity,[10],99 g
same,Activity,[11],95 g
C[C@]12CC[C@H]3[C@@H](CCC4=CC(=O)CC[C@@]43C)[C@@H]1CC[C@@H]2O [TESTOSTERONE],Activity,[12],37.8 mg
same,Activity,[13],97 g
same,Activity,[14],12.9 mg
same,Activity,[15],35.3 mg
CC(=O)O[C@H]1CC[C@H]2[C@@H]3CC[C@H]4CN(Cc5ccccc5)C[C@]4(C)[C@H]3CC[C@]12C,Activity,[16],10.7 mg
same,Activity,[17],24.2 mg
same,Activity,[18],19.4 mg
same,Activity,[19],89 g
